Structures can show the parent of a compound that is named as a salt.

`O=C(NC1CN2CCC1CC2)OCc1ccc2c(c1)OCO2` (centres unmarked) (as salt: hydrochloride) gave a melting point of 186 to 187 °C.

`COc1cc(COC(=O)NC2CN3CCC2CC3)cc(OC)c1OC` (centres unmarked) (as salt: hydrochloride) registered a melting point of 211 to 212 °C.

Broadly, the melting point is the temperature of the solid-liquid transition.

Source of the values: patent US6780861B2, “Azabicyclic carbamates and their use as α-7 nicotinic acetylcholine receptor agonists” (Novartis AG, priority 2000, dated 2004).
